Data taken from patent US8907093B2, “Carboxylic acid derivatives having an oxazolo[4,5-c]pyridine ring” (Sanofi, priority 2011, dated 2014).

Target: T1, human Edg 1 receptor (Homo sapiens, UniProt P21453)
T1 construct: FLAG (N); expressed in transfected cells; membrane preparation
Assay: GTP-γ-S assay using human Edg 1 receptors (scintillation proximity assay, CHO Flp-In membrane preparation)
Type: biochemical
Settings: test compound at 10 μM; [35S]GTP-γ-S binding; membranes of CHO Flp-In cells overexpressing human Edg 1
Text: A) GTP-γ-S assay using human Edg 1 receptors
In order to determine the Edg 1 receptor activation by the compounds of the invention, a GTP-γ-S ((GTP-γ-S=guanosine 5′-[thio]triphosphate) assay for G-protein coupled receptor binding based on the scintillation proximity assay principle was used, employing a cell membrane preparation from a CHO Flp-In cell line which constitutively overexpresses the human Edg 1 receptor.
A membrane preparation was obtained by standard methods from the afore-described CHO Flp-In cell line constitutively overexpressing the human Edg 1 receptor. Briefly, the cryopreserved cells were taken in culture and grown until confluency in T175 cell culture flasks (Becton Dickinson, cat. no. 35 5001). […] Protein concentration of the membrane preparation was determined in a sample by means of a commercial protein assay (Bio-Rad, DC Protein Assay, cat. nos. 500-0113, 500-0114, 500-0115).
The Edg 1 membrane preparation obtained in (b) was employed in a commercially available scintillation proximity assay (SPA) kit for G-protein coupled receptor binding from Amersham Biosciences/GE Healthcare (code RPNQ0210), in which ligand-induced binding of ^35S-radiolabeled GTP-γ-S to the receptor-containing membrane, which is bound to scintillation beads, stimulates the emission of light and allows to quantify the in vitro activity of the Edg 1 agonistic compound. […]

T1 sequence (P21453 whole entry): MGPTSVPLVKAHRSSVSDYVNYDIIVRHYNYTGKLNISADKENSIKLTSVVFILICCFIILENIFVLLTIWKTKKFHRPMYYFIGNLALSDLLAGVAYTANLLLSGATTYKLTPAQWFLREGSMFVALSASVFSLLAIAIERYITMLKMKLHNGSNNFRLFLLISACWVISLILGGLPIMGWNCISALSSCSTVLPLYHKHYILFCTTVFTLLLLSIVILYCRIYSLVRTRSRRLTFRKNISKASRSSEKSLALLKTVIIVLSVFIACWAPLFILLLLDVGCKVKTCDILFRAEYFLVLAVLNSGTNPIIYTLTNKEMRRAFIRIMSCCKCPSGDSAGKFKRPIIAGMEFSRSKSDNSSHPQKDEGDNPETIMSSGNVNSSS

**Q.** `Cc1cc(-c2nc3cnc(Oc4ccccc4F)cc3o2)cc(C)c1OCC(=O)O` [Example 1, {4-[6-(2-Fluorophenoxy)oxazolo[4,5-c]pyridin-2-yl]-2,6-dimethylphenoxy}acetic acid] was tested. Which “receptor activation in percent of the respective high control (10 μM S1P, regarded as 100% activation)” value did it give?
**A.** 86%
